Assay results published in patent US20250134869A1, “Pyrrolo[2,3-d]pyrimidinyl, Pyrrolo[2,3-b]pyrazinyl and Pyrrolo[2,3-d]pyridinyl Acryla-mides” (Pfizer Inc, priority 2021, published 2025).
Where two headings read alike, the source gives them in different places.

Molecular target: JAK3 enzyme (Homo sapiens (Human), UniProt P52333)
Assay: JAK Caliper Enzyme Assay at 4 μM or 1 mM ATP
Assay type: biochemical
[1] = read-out: JAK3 (4 μM ATP) IC50, 4 μM ATP
[2] = read-out: JAK3 (1 mM ATP) IC50, 1 mM ATP

Chain of JAK3 enzyme (P52333 whole entry, species assumed): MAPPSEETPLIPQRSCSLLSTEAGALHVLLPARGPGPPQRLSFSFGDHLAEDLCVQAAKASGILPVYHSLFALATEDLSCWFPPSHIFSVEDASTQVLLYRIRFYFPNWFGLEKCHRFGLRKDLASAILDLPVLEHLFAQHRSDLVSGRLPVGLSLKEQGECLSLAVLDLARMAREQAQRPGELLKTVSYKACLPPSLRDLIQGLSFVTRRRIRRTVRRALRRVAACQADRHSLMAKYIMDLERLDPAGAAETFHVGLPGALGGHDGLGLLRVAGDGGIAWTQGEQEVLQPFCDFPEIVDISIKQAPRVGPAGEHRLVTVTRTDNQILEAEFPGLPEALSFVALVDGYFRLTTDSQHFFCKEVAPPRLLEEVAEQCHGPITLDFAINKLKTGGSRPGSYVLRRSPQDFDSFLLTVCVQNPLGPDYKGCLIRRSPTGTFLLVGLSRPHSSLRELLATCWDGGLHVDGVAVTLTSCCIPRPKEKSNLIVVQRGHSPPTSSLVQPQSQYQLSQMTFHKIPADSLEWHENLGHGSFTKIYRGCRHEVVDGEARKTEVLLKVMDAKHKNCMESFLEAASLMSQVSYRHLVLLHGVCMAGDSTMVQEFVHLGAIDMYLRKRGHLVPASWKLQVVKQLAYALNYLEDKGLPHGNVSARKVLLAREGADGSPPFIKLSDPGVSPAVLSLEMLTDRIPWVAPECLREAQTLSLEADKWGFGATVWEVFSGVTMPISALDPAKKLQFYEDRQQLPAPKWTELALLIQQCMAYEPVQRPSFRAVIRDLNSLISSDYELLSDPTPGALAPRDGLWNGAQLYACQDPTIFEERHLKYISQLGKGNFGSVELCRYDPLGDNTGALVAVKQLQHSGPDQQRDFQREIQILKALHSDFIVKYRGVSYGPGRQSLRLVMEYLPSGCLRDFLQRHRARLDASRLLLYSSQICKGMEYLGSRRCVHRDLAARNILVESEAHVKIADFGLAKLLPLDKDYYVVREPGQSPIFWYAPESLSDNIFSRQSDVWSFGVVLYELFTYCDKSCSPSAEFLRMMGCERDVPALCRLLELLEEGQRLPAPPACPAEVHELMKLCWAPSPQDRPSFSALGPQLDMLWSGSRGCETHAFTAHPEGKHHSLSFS

Row | Compound | IC50 [1] [nM] | IC50 [2] [nM]
1 | C=CC(=O)N1CCC(Nc2cnc3[nH]cc(C(=O)NCCCC(F)(F)F)c3n2)CC1 [Example 240, 2-[(1-acryloylpiperidin-4-yl)amino]-N-(4,4,4-trifluorobutyl)-5H-pyrrolo[2,3-b]pyrazine-7-carboxamide] | 0.1 | 9.1
2 | C=CC(=O)N1CCC(Nc2cnc3[nH]cc(C(=O)NC[C@H](C)CC(F)(F)F)c3n2)CC1 [Example 241, 2-[(1-acryloylpiperidin-4-yl)amino]-N-[(2R)-4,4,4-trifluoro-2-methylbutyl]-5H-pyrrolo[2,3-b]pyrazine-7-carboxamide] | 0.2 | 7.3
3 | C=CC(=O)N1CCC(Nc2cnc3[nH]cc(C(=O)NCCCC#N)c3n2)CC1 [Example 242, 2-[(1-acryloylpiperidin-4-yl)amino]-N-(3-cyanopropyl)-5H-pyrrolo[2,3-b]pyrazine-7-carboxamide] | 0.1 | 10.7
4 | C=CC(=O)N1CCC(Nc2cnc3[nH]cc(C(=O)NC4CC(F)C4)c3n2)CC1 (stereo not shown) [Example 243, 2-[(1-acryloylpiperidin-4-yl)amino]-N-(3-fluorocyclobutyl)-5H-pyrrolo[2,3-b]pyrazine-7-carboxamide] | < 0.1 | 9
5 | C=CC(=O)N1CCC(Nc2cnc3[nH]cc(C(=O)N[C@H]4CC[C@@H](F)C4)c3n2)CC1 [Example 244, 2-[(1-acryloylpiperidin-4-yl)amino]-N-[(1S,3R)-3-fluorocyclopentyl]-5H-pyrrolo[2,3-b]pyrazine-7-carboxamide] | 0.2 | 7.3
6 | C=CC(=O)N1CCC(Nc2cnc3[nH]cc(C(=O)NC4CC(F)(F)C4)c3n2)CC1 [Example 245, 2-[(1-acryloylpiperidin-4-yl)amino]-N-(3,3-difluorocyclobutyl)-5H-pyrrolo[2,3-b]pyrazine-7-carboxamide] | 0.2 | 17.9
7 | C=CC(=O)N1CCC(Nc2cnc3[nH]cc(C(=O)NCCC(F)(F)F)c3n2)CC1 [Example 246, 2-[(1-acryloylpiperidin-4-yl)amino]-N-(3,3,3-trifluoropropyl)-5H-pyrrolo[2,3-b]pyrazine-7-carboxamide] | 0.3 | 6.4
8 | C=CC(=O)N1CCC(Nc2cnc3[nH]cc(C(=O)N[C@H]4CC[C@H](F)C4)c3n2)CC1 [Example 247, 2-[(1-acryloylpiperidin-4-yl)amino]-N-[(1S,3S)-3-fluorocyclopentyl]-5H-pyrrolo[2,3-b]pyrazine-7-carboxamide] | 0.2 | 8.2
9 | C=CC(=O)N1CCC(Nc2cnc3[nH]cc(C(=O)N[C@H](C(C)C)[C@@H](O)C(F)(F)F)c3n2)CC1 [Example 248, 2-[(1-acryloylpiperidin-4-yl)amino]-N-[(2R,3R)-1,1,1-trifluoro-2-hydroxy-4-methylpentan-3-yl]-5H-pyrrolo[2,3-b]pyrazine-7-carboxamide] | 0.4 | 40.2
10 | C=CC(=O)N1CCC(Nc2cnc3[nH]cc(C(=O)NCC4(O)CCCC(F)(F)C4)c3n2)CC1 (stereo not shown) [Example 249, 2-[(1-acryloylpiperidin-4-yl)amino]-N-[(3,3-difluoro-1-hydroxycyclohexyl)methyl]-5H-pyrrolo[2,3-b]pyrazine-7-carboxamide] | 0.6 | 47
11 | C=CC(=O)N1CCC(Nc2cnc3[nH]cc(C(=O)N[C@@H]4CCC[C@@H]4F)c3n2)CC1 [Example 251, 2-[(1-acryloylpiperidin-4-yl)amino]-N-[(1R,2S)-2-fluorocyclopentyl]-5H-pyrrolo[2,3-b]pyrazine-7-carboxamide] | 0.2 | 8.1
12 | C=CC(=O)N1CCC(Nc2cnc3[nH]cc(C(=O)N[C@@H](C(C)C)[C@H](O)C(F)(F)F)c3n2)CC1 [Example 252, 2-[(1-acryloylpiperidin-4-yl)amino]-N-[(2S,3S)-1,1,1-trifluoro-2-hydroxy-4-methylpentan-3-yl]-5H-pyrrolo[2,3-b]pyrazine-7-carboxamide] | 0.5 | 37.2
13 | C=CC(=O)N1CCC(Nc2cnc3[nH]cc(C(=O)NCC4(O)CCC(F)(F)CC4)c3n2)CC1 [Example 252b, 2-[(1-acryloylpiperidin-4-yl)amino]-N-[(4,4-difluoro-1-hydroxycyclohexyl)methyl]-5H-pyrrolo[2,3-b]pyrazine-7-carboxamide] | 0.5 | 40.6
14 | C=CC(=O)N1CCC(Nc2cnc3[nH]cc(C(=O)NCC(C)CC(F)(F)F)c3n2)CC1 (stereo not shown) [Example 253, 2-[(1-acryloylpiperidin-4-yl)amino]-N-(4,4,4-trifluoro-2-methylbutyl)-5H-pyrrolo[2,3-b]pyrazine-7-carboxamide] | 0.2 | 6.9
15 | C=CC(=O)N1CCC(Nc2cnc3[nH]cc(C(=O)N[C@@H]4CC[C@H](F)C4)c3n2)CC1 [Example 255, 2-[(1-acryloylpiperidin-4-yl)amino]-N-[(1R,3S)-3-fluorocyclopentyl]-5H-pyrrolo[2,3-b]pyrazine-7-carboxamide] | 0.3 | 9.7
16 | C=CC(=O)N1CCC(Nc2cnc3[nH]cc(C(=O)NC4CCCCC4(F)F)c3n2)CC1 (stereo not shown) [Example 256, 2-[(1-acryloylpiperidin-4-yl)amino]-N-(2,2-difluorocyclohexyl)-5H-pyrrolo[2,3-b]pyrazine-7-carboxamide] | 0.2 | 7.9
17 | C=CC(=O)N1CCC(Nc2cnc3[nH]cc(C(=O)NC4CCC(F)(F)C4)c3n2)CC1 (stereo not shown) [Example 259, 2-[(1-acryloylpiperidin-4-yl)amino]-N-(3,3-difluorocyclopentyl)-5H-pyrrolo[2,3-b]pyrazine-7-carboxamide] | 0.2 | 11.1
18 | C=CC(=O)N1CCC(Nc2cnc3[nH]cc(C(=O)NCCC#N)c3n2)CC1 [Example 261, 2-[(1-acryloylpiperidin-4-yl)amino]-N-(2-cyanoethyl)-5H-pyrrolo[2,3-b]pyrazine-7-carboxamide] | 0.2 | 7.4
19 | C=CC(=O)N1CCC(Nc2cnc3[nH]cc(C(=O)N[C@H](CC)CC#N)c3n2)CC1 [Example 263, 2-[(1-acryloylpiperidin-4-yl)amino]-N-[(2R)-1-cyanobutan-2-yl]-5H-pyrrolo[2,3-b]pyrazine-7-carboxamide] | 0.2 | 8.7
20 | C=CC(=O)N1CCC(Nc2cnc3[nH]cc(C(=O)NC(C)(C)C)c3n2)CC1 [Example 266, 2-[(1-acryloylpiperidin-4-yl)amino]-N-tert-butyl-5H-pyrrolo[2,3-b]pyrazine-7-carboxamide] | 0.3 | 13.6
21 | C=CC(=O)N1CCC(Nc2cnc3[nH]cc(C(=O)N[C@@H](C)CCC)c3n2)CC1 [Example 267, 2-[(1-acryloylpiperidin-4-yl)amino]-N-[(2S)-pentan-2-yl]-5H-pyrrolo[2,3-b]pyrazine-7-carboxamide] | 0.3 | 9
22 | C=CC(=O)N1CCC(Nc2cnc3[nH]cc(C(=O)N[C@H](C)COC)c3n2)CC1 [Example 268, 2-[(1-acryloylpiperidin-4-yl)amino]-N-[(2R)-1-methoxypropan-2-yl]-5H-pyrrolo[2,3-b]pyrazine-7-carboxamide] | 0.3 | 7.9
23 | C=CC(=O)N1CCC(Nc2cnc3[nH]cc(C(=O)NCCCC)c3n2)CC1 [Example 269, 2-[(1-acryloylpiperidin-4-yl)amino]-N-butyl-5H-pyrrolo[2,3-b]pyrazine-7-carboxamide] | 0.2 | 7.3
